In patent US20250082633A1, “COMPOUNDS AND METHODS FOR MODULATING SPLICING” (REMIX THERAPEUTICS INC., priority 2021, published 2025):
Like-named read-outs stand apart in the source and are kept apart here.

How the values were obtained:
Format in all cases: cell-based
MYB mRNA = assay: RT-qPCR splicing assay, MYB canonical (CJ) and alternative (AJ) junction mRNA; conditions: Homo sapiens; for IC50: read-out: MYB CJ IC50
Description: (§1) Compounds described herein were used to modulate RNA transcript abundance in cells. The expression of a target mRNA was measured by detecting the formation of an exon-exon junction in the canonical transcript (CJ). A compound mediated exon-inclusion event was detected by observing an increase in formation of a new junction with an alternative exon (AJ). Real-time qPCR assays were used to detect these splicing switches and interrogate the potency of various compounds towards different target genes. A high-throughput real time quantitative PCR (RT-qPCR) assay was developed to measure these two isoforms of the mRNA (CJ and AJ) for exemplary genes, such as HTT, SMN2, and MYB, together with a control housekeeping gene, GAPDH or GUSB or PPIA, used for normalization. Briefly, the A673 or K562 cell line was treated with various compounds described herein (e.g., compounds of Formula (I)). After treatment, the levels of the HTT, MYB, or SMN2 mRNA targets were determined from each sample of cell lysate by cDNA synthesis followed by qPCR.
(§2) • Cells-to-CT 1-step kit: ThermoFisher A25602, Cells-to-CT lysis reagent: ThermoFisher 4391851C, TaqMan™ Fast Virus 1-Step Master Mix: ThermoFisher 4444436 • GAPDH: VIC-PL, ThermoFisher 4326317E (Assay: Hs99999905_m1)—used for K562/suspension cell lines • GUSB: VIC-PL, ThermoFisher 4326320E (Assay: Hs99999908_m1)—used for K562/suspension cell lines • PPIA: VIC-PL, ThermoFisher 4326316E (Assay: Hs99999904_m1)—used for A673/adherent cell lines
(§3) The A673 cell line was cultured in DMEM with 10% FBS. Cells were diluted with full growth media and plated in a 96-well plate (15,000 cells in 100 ul media per well). The plate was incubated at 37° C. with 5% CO2 for 24 hours to allow cells to adhere. An 11-point 3-fold serial dilution of the compounds was made in DMSO then diluted in media in an intermediate plate. Compounds were transferred from the intermediate plate to the cell plate with the top dose at a final concentration of 10 uM in the well. Final DMSO concentration was kept at or below 0.25%. The cell plate was returned to the incubator at 37° C. with 5% CO2 for an additional 24 hours.
(§4) The K562 cell line was cultured in IMDM with 10% FBS. For K562, cells were diluted with full growth media and plated in either a 96-well plate (50,000 cells in 50 uL media per well) or a 384-well plate (8,000-40,000 cells in 45 uL media per well). An 11-point 3-fold serial dilution of the compounds were made in DMSO then diluted in media in an intermediate plate. Compound was transferred from the intermediate plate to the cell plate with the top dose at a final concentration of 10 uM in the well. Final DMSO concentration was kept at or below 0.25%. Final volume was 100 uL for 96-well plate and 50 uL for 384-well plate. The cell plate was then placed in an incubator at 37° C. with 5% CO2 for 24 hours.
(§5) The cells were then gently washed with 50 uL-100 uL cold PBS before proceeding to addition of lysis buffer. 30 uL-50 μL of room temperature lysis buffer with DNAse I (and optionally RNAsin) was added to each well. Cells were shaken/mixed thoroughly at room temperature for 5-10 minutes for lysis to take place and then 3 uL-5 μL of room temperature stop solution was added and wells were shaken/mixed again. After 2-5 minutes, the cell lysate plate was transferred to ice for RT-qPCR reaction setup. The lysates could also be frozen at −80° C. for later use.
(§6) In some cases, a direct lysis buffer was used. An appropriate volume of 3× lysis buffer (10 mM Tris, 150 mM NaCl, 1.5%-2.5% Igepal and 0.1-1 U/uL RNAsin, pH 7.4) was directly added to either K562 or A673 cells in media and mixed by pipetting 3 times. The plates were then incubated at room temperature with shaking/rocking for 20-50 minutes to allow for lysis to take place. After this time, the cell lysate plate was transferred to ice to set up for the RT-qPCR reactions. The lysates could also be frozen at −80° C. for later use. […]

K562 cells = assay: Cell Titer Glo 2.0 cell viability assay; conditions: Homo sapiens, 500 cells/well, 72 hours
Description: Compounds described herein were screened for toxicity in K562 (human chronic myelogenous leukemia) and SH-SY5Y (human neuroblastoma) cells using a Cell Titer Glo 2.0 assay. • Promega CellTiter-Glo® 2.0 Cell Viability Assay (cat #G9241) • Corning 384-well TC-treated microplates (cat #3570) Cells were plated at 500 cells/well (K562 cells) in 45 μL of IMDM supplemented with 10% FBS in a 384-well opaque plate. Wells containing only medium were used as a blank control. Test compounds (e.g., compounds of Formula (I), (II), or (III)) were first serially diluted in DMSO then diluted 1:100 with IMDM+10% FBS. The final concentration of DMSO was 0.1% in each well. The cells were incubated for 72 hours at 37° C. and 5% CO2 before assaying with Cell Titer Glo 2.0 reagent.

SMN2 mRNA = assay: RT-qPCR splicing assay, gene panel, SMN2 canonical junction (CJ) mRNA; conditions: Homo sapiens; decrease in CJ mRNA levels; larger panel of genes; Table 3; read-out: SMN2 CJ IC50
Description: as §1, §3, §4, §5
(§7) In some cases, a direct lysis buffer was used. An appropriate volume of 3× lysis buffer (10 mM Tris, 150 mM NaCl, 1.5%-2.5% Igepal and 0.1-1 U/uL RNAsin, pH 7.4) was directly added to either K562 or A673 cells in media and mixed by pipetting 3 times. The plates were then incubated at room temperature with shaking/rocking for 20-50 minutes to allow for lysis to take place. After this time, the cell lysate plate was transferred to ice to set up for the RT-qPCR reactions. The lysates could also be frozen at −80° C. for later use.
(§8) To set up 10 uL RT-qPCR reactions, cell lysates were transferred to 384-well qPCR plates containing the master mix according to the table below. The plates were sealed, gently vortexed, and spun down before the run. The volumes were adjusted accordingly in some instances where the reaction was carried in 20 μL. The table below summarizes the components of the RT-qPCR reactions:
(§9) The RT-qPCR reaction was performed using a QuantStudio (ThermoFisher) under the following fast cycling conditions. […]

Target C = assay: RT-qPCR splicing assay, gene panel, Target C canonical junction (CJ) mRNA; conditions: Homo sapiens; decrease in CJ mRNA levels; larger panel of genes; Table 3; read-out: Target C CJ IC50
Description: as §1, §3, §4, §5, §7, §8, §9

HTT mRNA = assay: RT-qPCR splicing assay, HTT canonical (CJ) and alternative (AJ) junction mRNA; conditions: Homo sapiens; for IC50: read-out: HTT CJ IC50
Description: as §1, §2, §3, §4, §5, §6

[1] = decrease in CJ mRNA levels, larger panel of genes, Table 3
[2] = decrease in canonical junction mRNA, A673 or K562 cells, 24 hours treatment, Table 2

Cc1cn2nc(-c3cc(F)c4nn(C5CCNC6(CC6)C5)cc4c3)cc2c(C)n1 (stereo not drawn) [Compound 204, 2-[2-(4-azaspiro[2.5]octan-7-yl)-7-fluoro-indazol-5-yl]-4,6-dimethyl-pyrazolo[1,5-a]pyrazine]
IC50 (MYB mRNA; [1]): 1000 to 10000 nM
IC50 (MYB mRNA; [2]): 1000 to 10000 nM
AC50 (MYB mRNA; increase in alternative junction mRNA, A673 or K562 cells, 24 hours treatment, Table 2, read-out: MYB AJ AC50): 1000 to 10000 nM
GI50 (K562 cells): 1000 to 10000 nM
IC50 (SMN2 mRNA): 100 to 1000 nM
IC50 (Target C): 100 to 1000 nM
IC50 (HTT mRNA; [1]): 100 to 1000 nM
IC50 (HTT mRNA; [2]): 100 to 1000 nM
AC50 (HTT mRNA; increase in alternative junction mRNA, A673 or K562 cells, 24 hours treatment, Table 2, read-out: HTT AJ AC50): 100 to 1000 nM
